The target of one assay is EGFR (Homo sapiens, UniProt P00533). Kind of assay: In vitro enzymatic activity assay. Type of assay: biochemical. The settings on record: read-out: EGFR inhibition%, inhibition percentage at 1.0 μM.
The conditions of assay [1]: hypoxia vs normoxia; cited from earlier work.

The text below walks through data of PMC6717862 (Drug Design, Development and Therapy, 2019).

Sequence of EGFR (P00533 25-1210): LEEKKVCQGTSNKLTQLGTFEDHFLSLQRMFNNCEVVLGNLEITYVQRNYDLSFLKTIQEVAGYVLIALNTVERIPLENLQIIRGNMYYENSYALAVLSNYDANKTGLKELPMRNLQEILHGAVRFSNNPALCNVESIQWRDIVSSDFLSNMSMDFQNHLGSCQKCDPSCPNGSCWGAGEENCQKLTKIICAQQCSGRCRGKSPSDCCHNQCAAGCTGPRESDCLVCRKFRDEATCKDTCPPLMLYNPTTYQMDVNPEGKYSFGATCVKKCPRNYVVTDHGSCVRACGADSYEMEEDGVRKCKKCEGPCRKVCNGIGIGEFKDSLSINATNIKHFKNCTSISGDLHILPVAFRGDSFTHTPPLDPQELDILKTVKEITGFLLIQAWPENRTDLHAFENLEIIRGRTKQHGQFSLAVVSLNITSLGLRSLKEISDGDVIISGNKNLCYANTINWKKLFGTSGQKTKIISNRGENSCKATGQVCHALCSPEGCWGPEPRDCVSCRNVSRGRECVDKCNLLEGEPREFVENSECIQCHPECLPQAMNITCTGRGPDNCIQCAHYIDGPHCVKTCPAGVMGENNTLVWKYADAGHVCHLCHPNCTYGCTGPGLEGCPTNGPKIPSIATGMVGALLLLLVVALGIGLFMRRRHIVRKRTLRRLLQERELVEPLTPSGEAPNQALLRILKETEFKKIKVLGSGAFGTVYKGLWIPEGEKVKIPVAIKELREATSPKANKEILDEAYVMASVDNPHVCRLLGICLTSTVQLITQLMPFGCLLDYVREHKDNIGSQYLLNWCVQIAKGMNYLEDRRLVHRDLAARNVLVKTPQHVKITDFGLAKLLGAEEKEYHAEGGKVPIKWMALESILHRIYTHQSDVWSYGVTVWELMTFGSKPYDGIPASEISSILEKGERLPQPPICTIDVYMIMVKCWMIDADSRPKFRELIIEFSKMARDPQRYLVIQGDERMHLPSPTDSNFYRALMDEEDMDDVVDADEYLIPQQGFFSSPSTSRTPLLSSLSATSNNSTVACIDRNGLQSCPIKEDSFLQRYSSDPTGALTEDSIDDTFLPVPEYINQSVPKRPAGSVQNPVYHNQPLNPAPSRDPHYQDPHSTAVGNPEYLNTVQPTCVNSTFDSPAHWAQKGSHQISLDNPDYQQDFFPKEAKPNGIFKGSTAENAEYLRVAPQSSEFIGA

Turning to `COc1cc2c(Nc3ccc(OCCn4ccnc4[N+](=O)[O-])cc3)ncnc2cc1OCCCN1CCOCC1` [Compound 16d, 6-Methoxy-7-(3-morpholinopropoxy)-N-(4-(2-(2-nitro-1H-imidazol-1-yl)ethoxy)phenyl)quinazolin-4-amine], the inhibition at 1 µM at EGFR was below 50%.

As to `COCCOc1cc2ncnc(Nc3ccc(OCCn4ccnc4[N+](=O)[O-])cc3)c2cc1OCCOC` [Compound 16h, 6,7-Bis(2-methoxyethoxy)-N-(4-(2-(2-nitro-1H-imidazol-1-yl)ethoxy)phenyl)quinazolin-4-amine], the inhibition at 1 µM at EGFR was below 50%. Take `COc1cc2ncnc(Nc3ccc(OCCn4ccnc4[N+](=O)[O-])cc3)c2cc1OCCCN1CCOCC1` [Compound 16l, 7-Methoxy-6-(3-morpholinopropoxy)-N-(4-(2-(2-nitro-1H-imidazol-1-yl)ethoxy)phenyl)quinazolin-4-amine]: the inhibition at 1 µM on EGFR was below 50%. Consider `Cn1c(COP(=O)(NCCBr)NCCBr)cnc1[N+](=O)[O-]` [TH-302], for which the “fold more effective in carcinoma hypoxia than in normoxia” value in assay [1] is recorded as 270 fold.
